Where a name gives a salt, the structure may show the parent alone.
target: T1, HCV polymerase (Hepatitis C virus genotype 1b, UniProt P26663); assay: biochemical; parameters: species or system HCV BK strain
T1 construct: a region encoding NS5B (J Virol 1991 March, 65(3), 1105-13, 544 amino acids after deletion of 47 amino acids on the C-terminal); 6xHis (C); made in house; host or cells: Escherichia coli
Summary of the method: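 His-tagged NS5B (BK strain, 47-aa C-terminal deletion, E. coli-expressed) at 0.5 μg/ml copied 5 μg/ml run-off RNA bearing the HCV 3′ UTR with 2 μM UTP plus [3H]UTP, 50 μM ATP/GTP, in pH 7.5 Tris with 5 mM MgCl2, 25 °C, 90 min. TCA-precipitated RNA was counted and IC50 calculated.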

T1 sequence (P26663 2420-2963): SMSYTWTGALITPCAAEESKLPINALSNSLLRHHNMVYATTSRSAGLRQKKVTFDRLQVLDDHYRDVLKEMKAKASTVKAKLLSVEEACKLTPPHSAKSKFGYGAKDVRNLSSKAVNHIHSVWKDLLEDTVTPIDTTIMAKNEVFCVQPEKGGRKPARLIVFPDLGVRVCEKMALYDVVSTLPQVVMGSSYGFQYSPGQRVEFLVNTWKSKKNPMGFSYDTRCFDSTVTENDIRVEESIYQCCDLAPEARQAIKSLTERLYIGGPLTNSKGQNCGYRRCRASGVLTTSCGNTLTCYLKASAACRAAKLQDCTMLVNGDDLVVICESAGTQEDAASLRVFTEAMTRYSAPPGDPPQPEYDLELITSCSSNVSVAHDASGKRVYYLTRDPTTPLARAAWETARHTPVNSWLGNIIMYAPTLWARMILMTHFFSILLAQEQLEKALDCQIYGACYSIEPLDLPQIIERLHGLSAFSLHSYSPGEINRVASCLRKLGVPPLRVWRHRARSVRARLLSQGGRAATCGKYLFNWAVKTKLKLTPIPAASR

Compared with Cn1c(C(C)(C)NC(=O)c2ccc3c(C4CCCCC4)c4n(c3c2)CCOc2ccccc2-4)nc2ccccc21 [Example 2-285, N-[1-methyl-1-(1-methyl-1H-benzimidazol-2-yl)ethyl]-12-cyclohexyl-6,7-dihydro-5-oxa-7a-azadibenzo[a,e]azulene-9-carboxamide], Cn1c(NC(=O)c2ccc3c(C4CCCCC4)c4n(c3c2)CCOc2ccccc2-4)nc2ccccc21 [Example 2-286, N-(1-methyl-1H-benzimidazol-2-yl)-12-cyclohexyl-6,7-dihydro-5-oxa-7a-azadibenzo[a,e]azulene-9-carboxamide] is higher in IC50: under 100 nM for the first, 100 to 1000 nM for the second.

Compared with O=C(O)CN1CCC(CO)(NC(=O)c2ccc3c(C4CCCCC4)c4n(c3c2)CCOc2ccccc2-4)CC1 [Example 2-287, {4-[(12-cyclohexyl-6,7-dihydro-5-oxa-7a-azadibenzo[a,e]azulene-9-carbonyl)amino]-4-hydroxymethylpiperidin-1-yl}acetic acid monohydrochloride], CC(C)(NC(=O)c1ccc2c(C3CCCCC3)c3n(c2c1)CCOc1ccccc1-3)C(=O)N1CCN(CCO)CC1 [Example 2-304, N-{2-[4-(2-hydroxyethyl)piperazin-1-yl]-1,1-dimethyl-2-oxoethyl}-12-cyclohexyl-6,7-dihydro-5-oxa-7a-azadibenzo[a,e]azulene-9-carboxamide] is lower in IC50: 100 to 1000 nM for the first, under 100 nM for the second.

First: O=C(NCc1nc2ccccc2n1CCO)c1ccc2c(C3CCCCC3)c3n(c2c1)CCOc1ccccc1-3 [Example 2-288, N-[1-(2-hydroxyethyl)-1H-benzimidazol-2-ylmethyl]-12-cyclohexyl-6,7-dihydro-5-oxa-7a-azadibenzo[a,e]azulene-9-carboxamide]
Second: Cc1nc(C(C)(C)NC(=O)c2ccc3c(C4CCCCC4)c4n(c3c2)CCOc2ccccc2-4)n(CCO)c1C [Example 2-292, N-{1-[1-(2-hydroxyethyl)-4,5-dimethyl-1H-imidazol-2-yl]-1-methylethyl}-12-cyclohexyl-6,7-dihydro-5-oxa-7a-azadibenzo[a,e]azulene-9-carboxamide]
The IC50 of the first is lower: under 100 nM for the first, 100 to 1000 nM for the second.

Compared with CC(C)(NC(=O)c1ccc2c(C3CCCCC3)c3n(c2c1)CCOc1ccccc1-3)C(=O)N1CCOCC1 [Example 2-289, N-[1,1-dimethyl-2-(morpholin-4-yl)-2-oxoethyl]-12-cyclohexyl-6,7-dihydro-5-oxa-7a-azadibenzo[a,e]azulene-9-carboxamide], CN1CCN(C(=O)C(C)(C)NC(=O)c2ccc3c(C4CCCCC4)c4n(c3c2)CCOc2ccccc2-4)CC1 [Example 2-290, N-[1,1-dimethyl-2-(4-methylpiperazin-1-yl)-2-oxoethyl]-12-cyclohexyl-6,7-dihydro-5-oxa-7a-azadibenzo[a,e]azulene-9-carboxamide] is higher in IC50: under 100 nM for the first, 100 to 1000 nM for the second. The first is the more potent here.

CC(C)(NC(=O)c1ccc2c(C3CCCCC3)c3n(c2c1)CCOc1ccccc1-3)C(=O)N1CCN(c2ccccc2)CC1 [Example 2-291, N-[1,1-dimethyl-2-oxo-2-(4-phenylpiperazin-1-yl)ethyl]-12-cyclohexyl-6,7-dihydro-5-oxa-7a-azadibenzo[a,e]azulene-9-carboxamide] and CC(=O)N1CCN(C(=O)C(C)(C)NC(=O)c2ccc3c(C4CCCCC4)c4n(c3c2)CCOc2ccccc2-4)CC1 [Example 2-303, N-[2-(4-acetylpiperazin-1-yl)-1,1-dimethyl-2-oxoethyl]-12-cyclohexyl-6,7-dihydro-5-oxa-7a-azadibenzo[a,e]azulene-9-carboxamide] cannot be ordered by IC50: under 100 nM for the first, under 100 nM for the second.

Compared with Cc1nc(C(C)(C)NC(=O)c2ccc3c(C4CCCCC4)c4n(c3c2)CCOc2ccccc2-4)n(CC(=O)N(C)C)c1C [Example 2-293, N-[1-(1-dimethylcarbamoylmethyl-4,5-dimethyl-1H-imidazol-2-yl)-1-methylethyl]-12-cyclohexyl-6,7-dihydro-5-oxa-7a-azadibenzo[a,e]azulene-9-carboxamide], COC1CCN(C(=O)C(C)(C)NC(=O)c2ccc3c(C4CCCCC4)c4n(c3c2)CCOc2ccccc2-4)CC1 [Example 2-294, N-[2-(4-methoxypiperidin-1-yl)-1,1-dimethyl-2-oxoethyl]-12-cyclohexyl-6,7-dihydro-5-oxa-7a-azadibenzo[a,e]azulene-9-carboxamide] is lower in IC50: 100 to 1000 nM for the first, under 100 nM for the second.

COCCN(C)C(=O)[C@H](Cc1ccc(O)cc1)NC(=O)c1ccc2c(C3CCCCC3)c3n(c2c1)CCOc1cc(OC)ccc1-3 [Example 2-295, N-{(S)-2-(4-hydroxyphenyl)-1-[N-(2-methoxyethyl)-N-methylcarbamoyl]ethyl}-12-cyclohexyl-3-methoxy-6,7-dihydro-5-oxa-7a-azadibenzo[a,e]azulene-9-carboxamide] and COCCNC(=O)[C@H](Cc1ccc(O)cc1)NC(=O)c1ccc2c(C3CCCCC3)c3n(c2c1)CCOc1cc(OC)ccc1-3 [Example 2-296, N—[(S)-2-(4-hydroxyphenyl)-1-(2-methoxyethylcarbamoyl)ethyl]-12-cyclohexyl-3-methoxy-6,7-dihydro-5-oxa-7a-azadibenzo[a,e]azulene-9-carboxamide] cannot be ordered by IC50: under 100 nM for the first, under 100 nM for the second.

COc1ccc2c(c1)OCCn1c-2c(C2CCCCC2)c2ccc(C(=O)N[C@@H](Cc3ccc(O)cc3)C(=O)N3CCC(OC)CC3)cc21 [Example 2-297, N—[(S)-1-(4-hydroxybenzyl)-2-(4-methoxypiperidin-1-yl)-2-oxoethyl]-12-cyclohexyl-3-methoxy-6,7-dihydro-5-oxa-7a-azadibenzo[a,e]azulene-9-carboxamide] and COc1ccc2c(c1)OCCn1c-2c(C2CCCCC2)c2ccc(C(=O)N[C@@H](Cc3ccc(O)cc3)CN(C)C)cc21 [Example 2-308, N—[(S)-2-dimethylamino-1-(4-hydroxybenzyl)ethyl]-12-cyclohexyl-3-methoxy-6,7-dihydro-5-oxa-7a-azadibenzo[a,e]azulene-9-carboxamide] cannot be ordered by IC50: under 100 nM for the first, under 100 nM for the second.

O=C(O)c1ccc2c(C3CCCCC3)c3n(c2c1)CCOc1c(-c2cccnc2)cccc1-3 [Example 2-298, 12-cyclohexyl-4-(pyridin-3-yl)-6,7-dihydro-5-oxa-7a-azadibenzo[a,e]azulene-9-carboxylic acid hydrochloride] and O=C(O)c1ccc2c(C3CCCCC3)c3n(c2c1)CCOc1c(-c2ccncc2)cccc1-3 [Example 2-299, 12-cyclohexyl-4-(pyridin-4-yl)-6,7-dihydro-5-oxa-7a-azadibenzo[a,e]azulene-9-carboxylic acid monohydrochloride] cannot be ordered by IC50: under 100 nM for the first, under 100 nM for the second.

CCCN(CCN1CCCCC1)c1cccc2c1OCCn1c-2c(C2CCCCC2)c2ccc(C(N)=O)cc21 [Example 2-300, 12-cyclohexyl-4-{N-[2-(piperidin-1-yl)ethyl]-N-propylamino}-6,7-dihydro-5-oxa-7a-azadibenzo[a,e]azulene-9-carboxamide] and CCN1CCN(C(=O)CN(CC)c2cccc3c2OCCn2c-3c(C3CCCCC3)c3ccc(C(=O)O)cc32)CC1 [Example 2-301, 12-cyclohexyl-4-{N-ethyl-N-[2-(4-ethylpiperazin-1-yl)-2-oxoethyl]amino}-6,7-dihydro-5-oxa-7a-azadibenzo[a,e]azulene-9-carboxylic acid dihydrochloride] cannot be ordered by IC50: under 100 nM for the first, under 100 nM for the second.

O=C(O)c1ccc2c(C3CCCCC3)c3n(c2c1)CCOc1c(-c2cccc(CO)c2)cccc1-3 [Example 2-302, 12-cyclohexyl-4-(3-hydroxymethylphenyl)-6,7-dihydro-5-oxa-7a-azadibenzo[a,e]azulene-9-carboxylic acid] and COc1cccc2c1OCCn1c-2c(C2CCCCC2)c2ccc(C(=O)NC(C)(C)C(=O)Nc3ccc(C(=O)O)cc3)cc21 [Example 2-306, 4-{2-[(12-cyclohexyl-4-methoxy-6,7-dihydro-5-oxa-7a-azadibenzo[a,e]azulene-9-carbonyl)amino]-2-methylpropionylamino}benzoic acid] cannot be ordered by IC50: under 100 nM for the first, under 100 nM for the second.

COCCN1CCN(C(=O)C(C)(C)NC(=O)c2ccc3c(C4CCCCC4)c4n(c3c2)CCOc2ccccc2-4)CC1 [Example 2-305, N-{2-[4-(2-methoxyethyl)piperazin-1-yl]-1,1-dimethyl-2-oxoethyl}-12-cyclohexyl-6,7-dihydro-5-oxa-7a-azadibenzo[a,e]azulene-9-carboxamide] and COc1ccc(-c2cnc(C(C)(C)NC(=O)c3ccc4c(C5CCCCC5)c5n(c4c3)CCOc3ccccc3-5)[nH]2)cc1 [Example 2-307, N-{1-[5-(4-methoxyphenyl)-1H-imidazol-2-yl]-1-methylethyl}-12-cyclohexyl-6,7-dihydro-5-oxa-7a-azadibenzo[a,e]azulene-9-carboxamide] cannot be ordered by IC50: under 100 nM for the first, under 100 nM for the second.

First: COC(=O)[C@H](CCCCNC(=O)OC(C)(C)C)NC(=O)c1ccc2c(C3CCCCC3)c3n(c2c1)CCOc1cc(OC)ccc1-3 [Example 2-309, methyl (S)-6-tert-butoxycarbonylamino-2-[(12-cyclohexyl-3-methoxy-6,7-dihydro-5-oxa-7a-azadibenzo[a,e]azulene-9-carbonyl)amino]hexanoate]
Second: COc1ccc2c(c1)OCCn1c-2c(C2CCCCC2)c2ccc(C(=O)N[C@@H](Cc3c[nH]cn3)C(=O)O)cc21 [Example 2-310, (S)-2-[(12-cyclohexyl-3-methoxy-6,7-dihydro-5-oxa-7a-azadibenzo[a,e]azulene-9-carbonyl)amino]-3-(1H-imidazol-4-yl)propionic acid]
The IC50 of the first is higher: 100 to 1000 nM for the first, under 100 nM for the second.

For CC(C)(NC(=O)c1ccc2c(C3CCCCC3)c3n(c2c1)CCOc1ccccc1-3)c1nc2cc(-c3nnn[nH]3)ccc2[nH]1 [Example 2-311, N-{1-methyl-1-[5-(1H-tetrazol-5-yl)-1H-benzimidazol-2-yl]ethyl}-12-cyclohexyl-6,7-dihydro-5-oxa-7a-azadibenzo[a,e]azulene-9-carboxamide], the IC50 was under 100 nM.
